In patent publication US20190364899A1, “MICROBIOCIDAL OXADIAZOLE DERIVATIVES” (SYNGENTA PARTICIPATIONS AG, priority 2015, published 2019):

Columns and labels:
Phakopsora pachyrhizi = assay: Fungicidal activity against Phakopsora pachyrhizi / soybean / leaf disc preventative (Asian soybean rust); format: in vivo; details: foliar, 200 ppm in the applied formulation, soybean leaf disks, inoculated one day after application, compared to untreated, read-out: disease control
Method: (§1) General examples of leaf disk tests in well plates: Leaf disks or leaf segments of various plant species are cut from plants grown in a greenhouse. The cut leaf disks or segments are placed in multiwell plates (24-well format) onto water agar. The leaf disks are sprayed with a test solution before (preventative) or after (curative) inoculation. Compounds to be tested are prepared as DMSO solutions (max. 10 mg/ml) which are diluted to the appropriate concentration with 0.025% Tween20 just before spraying. The inoculated leaf disks or segments are incubated under defined conditions (temperature, relative humidity, light, etc.) according to the respective test system. A single evaluation of disease level is carried out 3 to 14 days after inoculation, depending on the pathosystem. Percent disease control relative to the untreated check leaf disks or segments is then calculated. General examples of liquid culture tests in well plates: Mycelia fragments or conidia suspensions of a fungus prepared either freshly from liquid cultures of the fungus or from cryogenic storage, are directly mixed into nutrient broth. DMSO solutions of the test compound (max. 10 mg/ml) are diluted with 0.025% Tween20 by a factor of 50 and 10 μl of this solution is pipetted into a microtiter plate (96-well format). The nutrient broth containing the fungal spores/mycelia fragments is then added to give an end concentration of the tested compound. The test plates are incubated in the dark at 24° C. and 96% relative humidity. The inhibition of fungal growth is determined photometrically after 2 to 7 days, depending on the pathosystem, and percent antifungal activity relative to the untreated check is calculated.
Example 3: Fungicidal Activity Against Phakopsora pachyrhizi/Soybean/Leaf Disc Preventative (Asian Soybean Rust)
Soybean leaf disks are placed on water agar in multiwell plates (24-well format) and sprayed with the formulated test compound diluted in water. One day after application leaf discs are inoculated by spraying a spore suspension on the lower leaf surface. After an incubation period in a climate cabinet of 24-36 hours in darkness at 20° C. and 75% rh leaf disc are kept at 20° C. with 12 h light/day and 75% rh. The activity of a compound is assessed as percent disease control compared to untreated when an appropriate level of disease damage appears in untreated check leaf disks (12 to 14 days after application).
(§2) The following compounds at 200 ppm in the applied formulation give at least 80% disease control in this test when compared to untreated control leaf disks under the same conditions, which show extensive disease development.

[1] = tested on: Puccinia Recondite f. Sp. Tritici; assay: Fungicidal activity against Puccinia recondita f. sp. tritici / wheat / leaf disc curative (brown rust); format: in vivo; details: foliar, 24 h, 200 ppm in the applied formulation, wheat leaf segments cv. Kanzler, applied 1 day after inoculation, compared to untreated, read-out: disease control
Method: as §1
Example 2: Fungicidal Activity Against Puccinia Recondite f. Sp. Tritici Wheat/Leaf Disc Curative (Brown Rust)
Wheat leaf segments cv. Kanzler are placed on agar in multiwell plates (24-well format). The leaf segments are then inoculated with a spore suspension of the fungus. Plates were stored in darkness at 19° C. and 75% relative humidity. The formulated test compound diluted in water was applied 1 day after inoculation. The leaf segments were incubated at 19° C. and 75% relative humidity under a light regime of 12 hours light/12 hours darkness in a climate cabinet and the activity of a compound was assessed as percent disease control compared to untreated when an appropriate level of disease damage appears in untreated check leaf segments (6 to 8 days after application).
as §2

[2] = tested on: Glomerella Lagenarium (Colletotrichum Lagenarium); assay: Fungicidal activity against Glomerella lagenarium (Colletotrichum lagenarium) liquid culture / cucumber / preventative (anthracnose); format: cell-based; details: Colletotrichum orbiculare; 20 ppm in the applied formulation; liquid culture in PDB, growth inhibition measured photometrically 3 to 4 days after application; compared to untreated; read-out: disease control
Method: as §1
Example 4: Fungicidal Activity Against Glomerella Lagenarium (Colletotrichum Lagenarium) Liquid Culture/Cucumber/Preventative (Anthracnose)
Conidia of the fungus from cryogenic storage are directly mixed into nutrient broth (PDB—potato dextrose broth). After placing a (DMSO) solution of test compound into a microtiter plate (96-well format), the nutrient broth containing the fungal spores is added. The test plates are incubated at 24° C. and the inhibition of growth is measured photometrically 3 to 4 days after application.
The following compounds at 20 ppm in the applied formulation give at least 80% disease control in this test when compared to untreated control under the same conditions, which show extensive disease development.

[3] = tested on: Puccinia recondita f, Sp. Tritici; assay: Fungicidal activity against Puccinia recondita f. sp. tritici / wheat / leaf disc preventative (brown rust); format: in vivo; details: foliar, 200 ppm in the applied formulation, wheat leaf segments cv. Kanzler, inoculated 1 day after application, compared to untreated, read-out: disease control
Method: as §1
Example 1: Fungicidal Activity Against Puccinia recondita f, Sp. Tritici/Wheat/Leaf Disc Preventative (Brown Rust)
Wheat leaf segments cv. Kanzler were placed on agar in multiwell plates (24-well format) and sprayed with the formulated test compound diluted in water. The leaf disks were inoculated with a spore suspension of the fungus 1 day after application. The inoculated leaf segments were incubated at 19° C. and 75% relative humidity (rh) under a light regime of 12 hours light/12 hours darkness in a climate cabinet and the activity of a compound was assessed as percent disease control compared to untreated when an appropriate level of disease damage appears in untreated check leaf segments (7 to 9 days after application).
as §2

melting point: 176 to 180.1 °C
Structure (SMILES): O=C(NCc1ccc(-c2noc(C(F)(F)F)n2)cc1)NC1CC1 [Compound 2.3, 1-cyclopropyl-3-[[4-[5-(trifluoromethyl)-1,2,4-oxadiazol-3-yl]phenyl]methyl]urea]
pest or weed control at 200 ppm (Phakopsora pachyrhizi): ≥ 80% | pest or weed control at 200 ppm [1]: ≥ 80% | inhibition of growth at 20 ppm [2]: ≥ 80% | pest or weed control at 200 ppm [3]: ≥ 80%
